{"source": "patent US11976059B2", "about": "(KOREA RESEARCH INSTITUTE OF CHEMICAL TECHNOLOGY, priority 2018, dated 2024)"}
{"biological_target": "EGFR L858R/T790M/C797S mutant enzyme (Homo sapiens (Human), UniProt P00533, C797S/L858R/T790M)", "sequence (P00533 25-1210 T790M/C797S/L858R)": "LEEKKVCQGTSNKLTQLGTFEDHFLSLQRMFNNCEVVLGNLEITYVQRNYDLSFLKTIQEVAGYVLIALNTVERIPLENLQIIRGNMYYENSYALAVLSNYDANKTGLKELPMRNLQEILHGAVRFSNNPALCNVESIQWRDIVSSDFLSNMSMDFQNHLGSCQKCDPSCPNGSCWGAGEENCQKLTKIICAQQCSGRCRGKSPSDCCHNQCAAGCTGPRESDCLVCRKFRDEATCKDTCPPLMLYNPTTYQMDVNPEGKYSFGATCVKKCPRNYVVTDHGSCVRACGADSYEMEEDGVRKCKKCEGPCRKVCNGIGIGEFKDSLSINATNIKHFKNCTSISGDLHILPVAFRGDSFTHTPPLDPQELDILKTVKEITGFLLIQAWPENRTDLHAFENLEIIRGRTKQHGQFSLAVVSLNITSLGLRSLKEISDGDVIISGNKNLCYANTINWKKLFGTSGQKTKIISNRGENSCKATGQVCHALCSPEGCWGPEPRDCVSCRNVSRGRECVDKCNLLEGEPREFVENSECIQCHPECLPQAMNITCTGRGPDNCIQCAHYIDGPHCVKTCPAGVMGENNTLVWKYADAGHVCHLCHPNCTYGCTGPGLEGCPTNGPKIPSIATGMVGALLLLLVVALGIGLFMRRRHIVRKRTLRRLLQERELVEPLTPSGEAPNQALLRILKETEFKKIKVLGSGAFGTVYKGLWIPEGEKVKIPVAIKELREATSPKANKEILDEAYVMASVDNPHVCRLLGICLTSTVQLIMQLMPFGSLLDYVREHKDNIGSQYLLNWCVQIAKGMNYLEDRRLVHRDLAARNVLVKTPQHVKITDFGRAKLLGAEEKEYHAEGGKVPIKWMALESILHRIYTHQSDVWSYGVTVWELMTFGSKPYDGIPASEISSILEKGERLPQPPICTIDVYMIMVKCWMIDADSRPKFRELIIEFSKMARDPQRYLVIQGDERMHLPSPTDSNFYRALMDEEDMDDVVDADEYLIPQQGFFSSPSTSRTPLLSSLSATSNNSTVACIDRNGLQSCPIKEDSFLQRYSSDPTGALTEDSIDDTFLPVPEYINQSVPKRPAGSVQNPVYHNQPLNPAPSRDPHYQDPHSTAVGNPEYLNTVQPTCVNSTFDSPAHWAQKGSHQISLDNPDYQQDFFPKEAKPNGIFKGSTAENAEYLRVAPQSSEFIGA", "experiment": "EGFR mutant enzyme inhibition, HTRF system (Cisbio)", "type": "biochemical", "conditions": "ATP 1 mM, 37° C. for 2 hours", "description": "In order to evaluate the inhibitory activity of the compound represented by formula 1 according to the present invention against EGFR mutation, the following experiment was performed.\nThe activity of the compound of the present invention against EGFR mutant enzyme was measured using the HTRF system of Cisbio Co. As an EGFR L858R/T790M/C797S mutant enzyme, a protein provided by SignalChem was purchased and used as an enzyme source.\nThe composition of the assay buffer used for the activity measurement was as follows: 50 mM Tris-HCl (pH 7.5), 100 mM NaCl, 7.5 mM MgCl2, 3 mM KCl, 0.01% Tween 20, 0.1% BSA, and 1 mM DTT. Herein, an enzyme reaction was performed using a peptide substrate labeled with ATP at the concentration of 1 mM and biotin at the concentration of 0.5 μM. The analysis of the EGFR activity inhibitory effect of the compound was performed according to the following analytical reaction recipe.\nComponent 1: 4 μl of EGFR mutant enzyme\nComponent 2: 2 μl of compound solution\nComponent 3: 4 μl of ATP and biotin-labeled peptide mixture\nThe enzyme reaction was initiated by mixing the component 1 and the component 2 first and then adding the component 3 thereto. After reacting the mixture at 37° C. for 2 hours, 10 μl of a measurement solution consisting of streptavidin-XL665 and europium-labeled anti-phosphotyrosine antibody provided by Cisbio was added to the enzyme reaction solution, followed by reaction at room temperature for 1 hour. Finally, the ratio of the fluorescence values at 615 nm and 665 nm was calculated using Envision equipment of Perkin-Elmer to quantitatively measure the enzyme activity and confirm the inhibitory ability of the compound. The values measured at 7 concentrations of the compound were analyzed using Prism program (version 5.01, Graphpad Software, Inc.), and the IC50 value, an index of the inhibitory ability of the compound, was calculated.", "units": {"IC50": "nM"}}
{"smiles": "O=C1c2cc(-c3ccc(N4CCC(N5CCNCC5)CC4)cc3)ccc2CN1[C@@H](c1cc2ccccc2[nH]1)c1cc(Cl)ccc1O", "note": "[Example 60, (R)-2-((5-chloro-2-hydroxyphenyl)(1H-indole-2-yl)methyl)-6-(4-(4-(piperazine-1-yl)piperidine-1-yl)phenyl)isoindolin-1-one]", "IC50": 190}
{"smiles": "O=C1c2cc(-c3ccc(N4CCC(N5CCNCC5)CC4)cc3)ccc2CN1[C@@H](c1cc2ccccc2[nH]1)c1cc(F)ccc1O", "note": "[Example 59, (R)-2-((5-fluoro-2-hydroxyphenyl)(1H-indole-2-yl)methyl)-6-(4-(4-(piperazine-1-yl)piperidine-1-yl)phenyl)isoindolin-1-one]", "IC50": 32}
{"smiles": "O=C1c2ccccc2CN1C(c1nc2ccc(Cl)cc2[nH]1)c1ccccc1O", "note": "(centres unmarked) [Example 4, 2-((6-chloro-1H-benzo[d]imidazole-2-yl)(2-hydroxyphenyl)methyl)isoindolin-1-one]", "IC50": 4400}
{"smiles": "Nc1ccc(-c2ccc3c(c2)C(=O)N(C(c2nc4ccccc4[nH]2)c2ccccc2O)C3)cc1", "note": "(centres unmarked) [Example 12, 2-((1H-benzo[d]imidazole-2-yl)(2-hydroxyphenyl)methyl)-6-(4-aminophenyl)isoindolin-1-one]", "IC50": 500}
{"smiles": "O=C1c2ccccc2CN1C(c1nc2ccccc2[nH]1)c1cc(Cl)ccc1O", "note": "(centres unmarked) [Example 8, 2-((1H-benzo[d]imidazole-2-yl)(5-chloro-2-hydroxyphenyl)methyl)isoindolin-1-one]", "IC50": 170}
{"smiles": "N[C@@H]1CCN(c2ccc(-c3ccc4c(c3)C(=O)N([C@@H](c3cc5ccccc5[nH]3)c3cc(Cl)ccc3O)C4)cc2)C1", "note": "[Example 70, 6-(4-((R)-3-aminopyrrolidine-1-yl)phenyl)-2-((R)-(5-chloro-2-hydroxyphenyl)(1H-indole-2-yl)methyl)isoindolin-1-one]", "IC50": 730}
{"smiles": "O=C1c2cc(-c3ccc(N4CCNCC4)cc3)ccc2CN1[C@@H](c1cc2cc(F)ccc2[nH]1)c1cc(F)ccc1O", "note": "[Example 51, (R)-2-((5-fluoro-1H-indole-2-yl)(5-fluoro-2-hydroxyphenyl)methyl)-6-(4-(piperazine-1-yl)phenyl)isoindolin-1-one]", "IC50": 650}
{"smiles": "O=C1c2cc(-c3ccc(N4CCN(C5CCNCC5)CC4)cc3)ccc2CN1[C@@H](c1cc2ccccc2[nH]1)c1cc(F)ccc1O", "note": "[Example 63, (R)-2-((5-fluoro-2-hydroxyphenyl)(1H-indole-2-yl)methyl)-6-(4-(4-(piperidine-4-yl)piperazine-1-yl)phenyl)isoindolin-1-one]", "IC50": 300}
{"smiles": "O=C1c2ccccc2CN1[C@H](c1cc2ccccc2[nH]1)c1cc(F)ccc1O", "note": "[Example 24, (S)-2-((5-fluoro-2-hydroxyphenyl)(1H-indole-2-yl)methyl)isoindolin-1-one]", "IC50": 3300}
{"smiles": "O=C1c2cc(-c3ccc(N4CCNCC4)cc3)ccc2CN1[C@H](c1cc2ccccc2[nH]1)c1cc(F)ccc1O", "note": "[Example 53, (S)-2-((5-fluoro-2-hydroxyphenyl)(1H-indole-2-yl)methyl)-6-(4-(piperazine-1-yl)phenyl)isoindolin-1-one]", "IC50": 120}
{"smiles": "O=C1c2cc(C3=CCNCC3)ccc2CN1[C@@H](c1cc2ccccc2[nH]1)c1cc(Cl)ccc1O", "note": "[Example 36, (R)-2-((5-chloro-2-hydroxyphenyl)(1H-indole-2-yl)methyl)-6-(1,2,3,6-tetrahydropyridine-4-yl)isoindolin-1-one]", "IC50": 2400}
{"smiles": "N[C@@H]1CCN(c2ccc(-c3ccc4c(c3)C(=O)N([C@@H](c3cc5ccccc5[nH]3)c3cc(F)ccc3O)C4)cc2)C1", "note": "[Example 69, 6-(4-((R)-3-aminopyrrolidine-1-yl)phenyl)-2-((R)-(5-fluoro-2-hydroxyphenyl)(1H-indole-2-yl)methyl)isoindolin-1-one]", "IC50": 56}
{"smiles": "Nc1ccc(-c2ccc3c(c2)C(=O)N([C@@H](c2cc4ccccc4[nH]2)c2cc(Cl)ccc2O)C3)cc1", "note": "[Example 30, (R)-6-(4-aminophenyl)-2-((5-chloro-2-hydroxyphenyl)(1H-indole-2-yl)methyl)isoindolin-1-one]", "IC50": 120}
{"smiles": "O=C1c2cc(N3CCNCC3)ccc2CN1[C@@H](c1cc2ccccc2[nH]1)c1cc(F)ccc1O", "note": "[Example 37, (R)-2-((5-fluoro-2-hydroxyphenyl)(1H-indole-2-yl)methyl)-6-(piperazine-1-yl)isoindolin-1-one]", "IC50": "> 10000"}
{"smiles": "O=C1c2cc(-c3ccc(N4CCOCC4)cc3)ccc2CN1[C@@H](c1cc2ccccc2[nH]1)c1cc(F)ccc1O", "note": "[Example 45, (R)-2-((5-fluoro-2-hydroxyphenyl)(1H-indole-2-yl)methyl)-6-(4-morpholinophenyl)isoindolin-1-one]", "IC50": 280}
{"smiles": "CN1CCN(C2CCN(c3ccc(-c4ccc5c(c4)C(=O)N([C@@H](c4cc6ccccc6[nH]4)c4cc(Cl)ccc4O)C5)cc3)CC2)CC1", "note": "[Example 58, (R)-2-((5-chloro-2-hydroxyphenyl)(1H-indole-2-yl)methyl)-6-(4-(4-(4-methylpiperazine-1-yl)piperidine-1-yl)phenyl)isoindolin-1-one]", "IC50": 3700}
{"smiles": "O=C1c2ccccc2CN1[C@@H](c1cc2ccccc2[nH]1)c1c(O)ccc(F)c1F", "note": "[Example 21, (R)-2-((2,3-difluoro-6-hydroxyphenyl)(1H-indole-2-yl)methyl)isoindolin-1-one]", "IC50": "> 10000"}
{"smiles": "Nc1ccc(-c2ccc3c(c2)C(=O)N([C@@H](c2cc4ccccc4[nH]2)c2ccccc2O)C3)cc1", "note": "[Example 28, (R)-6-(4-aminophenyl)-2-((2-hydroxyphenyl)(1H-indole-2-yl)methyl)isoindolin-1-one]", "IC50": 160}
{"smiles": "CN(C)C1CCN(c2ccc(-c3ccc4c(c3)C(=O)N([C@@H](c3cc5ccccc5[nH]3)c3cc(F)ccc3O)C4)cc2)CC1", "note": "[Example 61, (R)-6-(4-(4-(dimethylamino)piperidine-1-yl)phenyl)-2-((5-fluoro-2-hydroxyphenyl)(1H-indole-2-yl)methyl)-isoindolin-1-one]", "IC50": 66}
{"smiles": "CN1CCN(c2ccc(-c3ccc4c(c3)C(=O)N([C@@H](c3cc5ccccc5[nH]3)c3cc(F)ccc3O)C4)cc2)CC1", "note": "[Example 43, (R)-2-((5-fluoro-2-hydroxyphenyl)(1H-indole-2-yl)methyl)-6-(4-(4-methylpiperazine-1-yl)phenyl)isoindolin-1-one]", "IC50": 210}
{"smiles": "O=C1c2cc(-c3ccc(N4CCNCC4)cc3)ccc2CN1[C@@H](c1cc2cccnc2[nH]1)c1cc(F)ccc1O", "note": "[Example 49, (R)-2-((5-fluoro-2-hydroxyphenyl)(1H-pyrrolo[2,3-b]pyridine-2-yl)methyl)-6-(4-(piperazine-4-yl)phenyl)isoindolin-1-one]", "IC50": 69}
{"smiles": "CN1CCN(C2CCN(c3ccc(-c4ccc5c(c4)C(=O)N([C@@H](c4cc6ccccc6[nH]4)c4cc(F)ccc4O)C5)cc3)CC2)CC1", "note": "[Example 57, (R)-2-((5-fluoro-2-hydroxyphenyl)(1H-indole-2-yl)methyl)-6-(4-(4-(4-methylpiperazine-1-yl)piperidine-1-yl)phenyl)isoindolin-1-one]", "IC50": 40}
{"smiles": "O=C1c2ccccc2CN1[C@@H](c1cc2ccccc2[nH]1)c1cc(Cl)ccc1O", "note": "[Example 26, (R)-2-((5-chloro-2-hydroxyphenyl)(1H-indole-2-yl)methyl)isoindolin-1-one]", "IC50": 190}
{"smiles": "O=C1c2cc(-c3ccc(N4CCCC4)cc3)ccc2CN1[C@@H](c1cc2ccccc2[nH]1)c1cc(F)ccc1O", "note": "[Example 67, (R)-2-((5-fluoro-2-hydroxyphenyl)(1H-indole-2-yl)methyl)-6-(4-(pyrrolidine-1-yl)phenyl)isoindolin-1-one]", "IC50": 790}
{"smiles": "O=C1c2cc(-c3ccc(N4CCOCC4)cc3)ccc2CN1[C@@H](c1cc2ccccc2[nH]1)c1cc(Cl)ccc1O", "note": "[Example 46, (R)-2-((5-chloro-2-hydroxyphenyl)(1H-indole-2-yl)methyl)-6-(4-morpholinophenyl)isoindolin-1-one]", "IC50": 110}
{"smiles": "CN1CCN(c2ccc(-c3ccc4c(c3)C(=O)N(C(c3nc5ccccc5[nH]3)c3cc(F)ccc3O)C4)cc2)CC1", "note": "(centres unmarked) [Example 18, 2-((1H-benzo[d]imidazole-2-yl)(5-fluoro-2-hydroxyphenyl)methyl)-6-(4-(4-methylpiperazine-1-yl)phenyl)isoindolin-1-one]", "IC50": 130}
{"smiles": "CN1CCC(N2CCN(c3ccc(-c4ccc5c(c4)C(=O)N([C@@H](c4cc6ccccc6[nH]4)c4cc(F)ccc4O)C5)cc3)CC2)CC1", "note": "[Example 65, (R)-2-((5-fluoro-2-hydroxyphenyl)(1H-indole-2-yl)methyl)-6-(4-(4-(1-methylpiperidine-4-yl)piperazine-1-yl)phenyl)isoindolin-1-one]", "IC50": 50}
{"smiles": "O=C1c2cc(-c3ccc(-c4ccncc4)cc3)ccc2CN1[C@@H](c1cc2ccccc2[nH]1)c1cc(Cl)ccc1O", "note": "[Example 48, (R)-2-((5-chloro-2-hydroxyphenyl)(1H-indole-2-yl)methyl)-6-(4-(pyridine-4-yl)phenyl)isoindolin-1-one]", "IC50": "> 10000"}
{"smiles": "O=C1c2cc(-c3ccc(-c4ccncc4)cc3)ccc2CN1[C@@H](c1cc2ccccc2[nH]1)c1cc(F)ccc1O", "note": "[Example 47, (R)-2-((5-fluoro-2-hydroxyphenyl)(1H-indole-2-yl)methyl)-6-(4-(pyridine-4-yl)phenyl)isoindolin-1-one]", "IC50": 85}
